Results on ten molecules are retold here after patent US12054485B2, “Substituted imidazoquinolines” (BIONTECH SE, priority 2017, dated 2024).

The subject of one test is Human PBMCs. In words: IFN-α induction by TLR agonists in human PBMCs (Luminex). Type of test: cell-based. On the procedure:
1) IFN-α Induction Assay—IFN-α induction by TLR Agonists in Human PBMCs
Abbreviations: BSA=bovine serum albumine; PBS=phosphate buffer pH 7.4; PE=phycoerythrin; EDC=1-ethyl-3-(3-dimethylaminopropyl)carbodiimide hydrochloride.
Materials and Devices: Bio Plex 200 Luminex device, and BioPlex Manager software; MultiScreen Filter Plates (Millipore, MABVN1250); low binding reaction vials 1.5 ml (Sarstedt, 72.706.600); Activation Buffer: 0.1M Na-dihydrogen phosphate, 0.1M Di-Na hydrogen phosphate pH 6.2; Sulfo-NHS (N-hydroxysulfosuccinimide) solution: 50 mg/ml in water (freshly prepared); EDC solution: 50 mg/ml in water (freshly prepared); Coupling Buffer: PBS; Washing Buffer: PBS+0.05% Tween20; Blocking Buffer: PBS+10 mg/ml BSA+0.05% sodium azide; Assay Buffer: PBS+10 mg/ml BSA;
Other materials and devices (pipets, reaction vessels, shaker, etc.) were standard lab equipment; water was MilliQ grade quality, buffers were sterile filtered before use.
(Pre-)Incubation of Cells:
In each well of a 96-well U-bottom plate 200,000 PBMCs were pre-incubated in medium (RPMI1640-Gibco #61870-044+10% FBS+1% L-glutamine) for 5 hours at 37° C. and 5% CO2 before the compounds of the present invention or controls were added, respectively. Upon addition of compounds of the present invention or controls, the cells are incubated for another 24 h at 37° C. and 5% CO2.
Luminex assay, Step 1: Coupling of antibody to beads: • transfer a suspension (beads are stored in buffer as provided by manufacturer) of about 5 million MicroPlex Microspheres (=beads) into a low binding reaction vial • centrifuge bead suspension for 1 min at 10,000 g, discard supernatant and resuspend pellet in 160 μl Activation Buffer, repeat once • add 20 μl Sulfo-NHS solution and 20 μl EDC solution, vortex • incubate for 20 min in the absence of light • centrifuge bead suspension for 1 min at 10,000 g, discard supernatant and resuspend pellet in 500 μl Coupling Buffer, repeat once • add capture antibody (CaptureAK eBioscience #BMS160, 5 μg per 1 Mio beads) • incubate 2 h at RT in the absence of light while swaying • centrifuge bead suspension for 1 min at 10,000 g, discard supernatant and resuspend pellet in 500 μl Washing Buffer, repeat once • centrifuge bead suspension for 1 min at I0,000 g, discard supernatant and resuspend pellet in 100 μl Blocking Buffer
Luminex assay, Step 2: Measurement • add 100 μlAssay Buffer into each filter plate well (seal any unused wells with adhesive tape), then remove buffer • add about 2,000 beads per well per analyte (per analyte, a different bead type with distinct fluorescence color is used), suspended in […] of Assay Buffer • remove buffer and wash twice with 100 μl Washing Buffer per well • per well, add 50 μl sample solution from the (pre-)incubation step (cell supernatant), or Standard (IFN-α standard eBioscience #BMS216MST—concentration gradient, highest standard concentration 2500 pg/ml) or Assay Buffer (as blanks) • shake plate • incubate plate for 2 h at RT in the absence of light, while swaying the plate • wash three times with 100 μl Washing Buffer per well • add 25 μl antibody detection mix (DetectionAK eBioscience #BMS1016BT diluted 1:1000) in Assay Buffer per well, then vortex plate • incubate plate for 1 h at RT in the absence of light, while swaying the plate • wash three times with 100 μl Washing Buffer per well • add 50 μl Streptavidin/PE (diluted 1:200 in Assay Buffer) per well, then vortex plate • incubate plate for 10 min at RT in the absence of light, while swaying the plate • wash three times with 100 μl Washing Buffer per well • add 100 μl Assay Buffer per well, then vortex plate • start Luminex measurement according to manufacturer's instructions, measuring at least 50 beads per well per analyte
The compounds were tested at 8 different concentrations (1 μM, 0.3 μM, 0.1 μM, 0.03 μM, 0.01 μM 0.003 μM, 0.001 μM, 0.0003 μM) using a half-logarithmic dilution. […]

The next test deals with T1, human TLR7 (Homo sapiens, UniProt Q9NYK1).
T1 construct: host or cells: HEK-Blue-hTLR7
T1 sequence (Q9NYK1 27-1049): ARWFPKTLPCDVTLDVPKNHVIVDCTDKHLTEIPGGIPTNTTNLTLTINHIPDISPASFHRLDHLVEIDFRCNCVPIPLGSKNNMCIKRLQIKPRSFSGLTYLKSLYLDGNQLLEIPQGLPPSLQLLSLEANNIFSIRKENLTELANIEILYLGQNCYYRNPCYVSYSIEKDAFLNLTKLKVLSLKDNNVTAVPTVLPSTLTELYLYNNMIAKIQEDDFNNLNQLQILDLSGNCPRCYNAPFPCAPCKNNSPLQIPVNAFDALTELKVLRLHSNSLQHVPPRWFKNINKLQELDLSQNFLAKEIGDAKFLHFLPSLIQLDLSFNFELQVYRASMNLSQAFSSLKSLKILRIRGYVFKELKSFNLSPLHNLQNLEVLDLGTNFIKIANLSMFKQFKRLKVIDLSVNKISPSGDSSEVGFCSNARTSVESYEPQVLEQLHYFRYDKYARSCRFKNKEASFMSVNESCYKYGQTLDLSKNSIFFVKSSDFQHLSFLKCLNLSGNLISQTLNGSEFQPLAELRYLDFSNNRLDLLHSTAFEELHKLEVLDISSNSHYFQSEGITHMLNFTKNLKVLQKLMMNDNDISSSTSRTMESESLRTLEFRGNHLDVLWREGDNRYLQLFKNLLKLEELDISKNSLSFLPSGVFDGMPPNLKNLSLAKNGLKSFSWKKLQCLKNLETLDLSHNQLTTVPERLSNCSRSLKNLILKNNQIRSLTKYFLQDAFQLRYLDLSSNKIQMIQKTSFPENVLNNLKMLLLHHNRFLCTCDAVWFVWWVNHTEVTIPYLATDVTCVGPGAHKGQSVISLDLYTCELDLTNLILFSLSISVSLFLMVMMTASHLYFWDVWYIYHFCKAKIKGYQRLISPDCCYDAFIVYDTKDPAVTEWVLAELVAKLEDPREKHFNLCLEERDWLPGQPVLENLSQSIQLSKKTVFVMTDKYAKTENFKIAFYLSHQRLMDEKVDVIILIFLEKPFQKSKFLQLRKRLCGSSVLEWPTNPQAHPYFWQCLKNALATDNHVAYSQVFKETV
As to the kind of experiment: TLR7 reporter gene assay (HEK-Blue-hTLR7, NFkB/AP-1 inducible SEAP). Type of test: cell-based. On the procedure:
2) TLR Stimulation Assay:
Compounds are tested for stimulation of human TLR7 and TLR8, respectively, via reporter gene expression analyzed in a cell line stably transfected with human TLR7 and TLR8, respectively, and coexpressing an NFkB/AP-1 inducible SEAP reporter gene. Stimulation with a TLR ligand leads to NFkB/AP-1 activation and upregulation and secretion of SEAP, which can be measured in the supernatant with QuantiBlue™ detection system (InvivoGen).
Cell lines used were either HEK-Blue-hTLR7 (InvivoGen #hkb-htlr7) or HEK-Blue-hTLR8 (InvivoGen #hkb-htlr8). Cells were cultured following manufacturer's instructions.
Assay: • prepare cell suspensions of each cell line with Nv=0.11×10^6 cells/ml in medium (DMEM 4.5 g/l Glucose, 2-4 mM L-glutamine+10% FBS) without antibiotics (Nv=number of living cells) • add 180 μl of the suspensions per well of a 96 well flat bottom cell culture plates (coster, #3506) • incubate the plates overnight at 37° C. and 5% CO2 • prepare samples and controls as solutions in DMSO: R848, CL075 (TLR 7/8 agonist by InvivoGen) and Guardiquimod each to a final concentration of 10 μM, ODN2006 (InvivoGen) and ODN2216 (InvivoGen) each to a final concentration 2 μM; • compounds of the invention are applied in dilution series to final concentrations of 30, 10, 3, 1, etc. μM • add 20 μl diluted compounds and controls (see above) to the wells • incubate plates for 20-24 h at 37° C. and 5% CO2 • prepare QuantiBlue™ (InvivoGen #10H19-MM) solution, following manufacturer's instructions: solubilize the powder of one pouch in 100 ml MilliQ grade water, heat at 37° C. in a water bath for about 30 min, filter the solution with a paper filter • add 100 μl prepared QuantiBlue™ solution in each well of a 96 well plate with flat bottom • add […] cell culture supernatant from the induced cells per well • incubate plates for 1 to 1.5 h at 37° C. (until an intense blue color has developed) • read OD at 620 nm with a plate reader • calculate EC50 from data points
(In a reporter assay the amount or activity of a reporter protein is the signal.)

[1] abbreviates: comparative compounds with 2-methyltetrahydrofuran-3-yl at R3, Table 2.
The mark [2] stands for this setting: 24 h incubation, maximum of bell-shaped curve over 0.0003-1 μM, Table 1.

Molecules are shown by their SMILES.

On to `CCc1nc2c(N)nc3ccccc3c2n1CCCCN(C(C)=O)C1CCOC1C` (stereo not drawn) [1′], for which the “Maximum IFN-α release” value in the test on Human PBMCs (setting [1]) was found to be 930 pg/mL. For the molecule `CCNCc1nc2c(N)nc3ccccc3c2n1CCCCN(C(C)=O)C1CCOC1C` (stereo not drawn) [3′], the “Maximum IFN-α release” value with Human PBMCs (setting [1]) was 360 pg/mL. The same measure, in the same setting: then `CCNCc1nc2c(N)nc3ccccc3c2n1CCCCN(C(N)=O)C1CCOC1C` (stereo not drawn) [4′], with 290 pg/mL. Same read-out and setting: then `COCCc1nc2c(N)nc3ccccc3c2n1CCCCN(C(C)=O)C1CCOC1C` (stereo not drawn) [5′], with 330 pg/mL. `CCc1nc2c(N)nc3ccccc3c2n1CCCCN(C(N)=O)C1CCOCC1` [Example 2, 1-(4-(4-Amino-2-ethyl-1H-imidazo[4,5-c]quinolin-1-yl)butyl)-1-(tetrabydro-2H-pyran-4-yl)urea]: the “Maximum IFN-α release” value with Human PBMCs (setting [2]) stood at 1250 pg/mL. Still for that read-out and setting: then `CCNCc1nc2c(N)nc3ccccc3c2n1CCCCN(C(C)=O)C1CCOCC1` [Example 3, N-(4-(4-Amino-2-((ethylamino)methyl)-1H-imidazo[4,5-c]quinolin-1-yl)butyl)-N-(tetrahydro-2H-pyran-4-yl)acetamide], with 1070 pg/mL; and `CCNCc1nc2c(N)nc3ccccc3c2n1CCCCN(C(N)=O)C1CCOCC1` [Example 4, 1-(4-(4-Amino-2-((ethylamino)methyl)-1H-imidazo[4,5-c]quinolin-1-yl)butyl)-1-(tetrahydro-2H-pyran-4-yl)urea], with 920 pg/mL.

In the case of `COCCc1nc2c(N)nc3ccccc3c2n1CCCCN(C(C)=O)C1CCOCC1` [Example 5, N-(4-(4-Amino-2-(2-methoxyethyl)-1H-imidazo[4,5-c]quinolin-1-yl)butyl)-N-(tetrahydro-2H-pyran-4-yl)acetamide], the “Maximum IFN-α release” value in the test with Human PBMCs (setting [2]) turned out to be 880 pg/mL.

Regarding `COCCc1nc2c(N)nc3ccccc3c2n1CCCCN(C(N)=O)C1CCOCC1` [Example 6, 1-(4-(4-Amino-2-(2-methoxyethyl)-1H-imidazo[4,5-c]quinolin-1-yl)butyl)-1-(tetrahydro-2H-pyran-4-yl)urea], in the test on Human PBMCs (setting [2]), the “Maximum IFN-α release” value came to 1850 pg/mL. The term EC50 denotes the midpoint of the concentration-response curve. As to `CCc1nc2c(N)nc3ccccc3c2n1CCCCN(C(C)=O)C1CCOC1C` (stereo not drawn) [example III, 3-{acetyl[4-(4-amino-2-ethyl-1H-imidazo[4,5-c]quinolin-1-yl)butyl]amino}-2,5-anhydro-1,3,4-trideoxypentitol], in the test with Human PBMCs (% of the maximum IFN-α release of Example 1), the “maximum IFN-α release relative to present Example 1” value is recorded as “about 50%”. For the same molecule, the EC50 at human TLR7 (HEK-Blue-hTLR7, read-out: EC50 in the TLR7 reporter gene assay) stood at 440 nM. Also, on human TLR7 (fold higher EC50 than Example 1), the “EC50 in TLR7 reporter gene assay relative to Example 1” value was “ten-fold higher”.
